Test results published in patent US12343363B2, “Lactic acid bacterial composition for the treatment of bacterial vaginal infections by Gardnerella vaginalis and, if present, of concurrent fungal infections” (PROBIOTICAL S.P.A., priority 2016, dated 2025).
Values after ≈ are worked out from the molar mass of the structure shown.

Assays:
[1] = system: C. parapsilosis ATCC 22019; experiment: Miconazole broth macrodilution test (optical density); format: cell-based, Candida parapsilosis
Source text: (§1) The strains of Candida being used in the present study were purchased from the American Type Culture Collection (ATCC). Specifically, the following biotypes were used: C. albicans ATCC 10231, C. parapsilosis ATCC 22019, C. krusei ATCC 6258, C. glabrata ATCC 2001 and C. tropicalis ATCC 750 (14). The strains of lactobacilli of this study, all isolated from vaginal swabs of healthy female subjects or directly brushing the intestinal mucosa of healthy humans, were classified based on their phenotypic and genotypic characteristics: L. fermentum LF5 (DSM 32277), L. fermentum LF09 (DSM 18298), L. fermentum LF10 (DSM 19187) and L. fermentum LF11 (DSM 19188).
(§2) The probiotic strains were cultured overnight in De Man, Rogosa and Sharpe (MRS) medium (Difco, B D, Maryland). In all the experiments, fresh culture media for all the strains of Candida were used. Before the experiment, the single strains of Candida were cultured in Sabouraud Dextrose Broth (Difco, B D, Maryland), an optimal medium for yeasts, for 48 hours under aerobic conditions.
(§3) Evaluation of the fungicidal activity. The minimum inhibitory concentration (MIC) for fluconazole was determined by E-test (bioMerieux Italy, Florence) with MHE agar. The plates were incubated under aerobic conditions at 30° C. and read after 24 hours. Furthermore, since there is no specific E-test for miconazole, the MIC was determined by using the broth macrodilution method. We assessed the activity of serially diluted fluconazole and miconazole (Sigma-Aldrich, Missouri, USA) (from […] to […]) against the Candida strains. Serial dilutions of azoles were prepared in Sabouraud Dextrose Broth in the presence of strains of Candida and broths were incubated under aerobic conditions at 30° C. and then read at an optical density (DO) of 560 nm.

[2] = system: C. tropicalis ATCC 750; experiment: as above; format: cell-based, Candida tropicalis
Source text: as §1, §2, §3

[3] = system: C. glabrata ATCC 2001; experiment: as above; format: cell-based, Candida glabrata
Source text: as §1, §2, §3

[4] = system: Candida albicans; experiment: Single-blind clinical study of LF5 vaginal capsules compared with miconazole; format: in vivo, human
Description: 100 patients with vaginal candidiasis, average age of 38.0 years (range 19-61 years) randomly assigned to two groups, which resulted homogeneous, each of 50 patients treated with miconazole or LF5 dosed at ≤10^9 in vaginal capsule formulation at a dosage of 1 vaginal capsule at night for three consecutive days, according to the single-blind experimental design were treated.
No discontinuations during the treatment nor during the two weeks of post-treatment observation occurred; thus two groups of 50 observations for efficacy and tolerability are provided.

[5] = system: C. albicans ATCC 10231; experiment: Miconazole broth macrodilution test (optical density); format: cell-based, Candida albicans
Source text: as §1, §2, §3

[6] = system: C. krusei ATCC 6258; experiment: as above; format: cell-based, Candida krusei
Source text: as §1, §2, §3

[7] = system: Candida parapsilosis ATCC 22019; experiment: Fluconazole MIC by E-test; format: cell-based; details: Lodderomyces parapsilosis, ATCC22019; E_test, range 0.016-256 μg/ml; read-out: MIC (minimum inhibitory concentration)
Source text: as §1, §3

[8] = system: Candida tropicalis ATCC 750; experiment: Fluconazole MIC by E-test; format: cell-based; details: ATCC750, E_test, range 0.016-256 μg/ml, read-out: MIC (minimum inhibitory concentration)
Source text: as §1, §3

[9] = system: Candida krusei ATCC 6258; experiment: Fluconazole MIC by E-test; format: cell-based; details: Pichia kudriavzevii, ATCC6258; E_test, range 0.016-256 μg/ml; read-out: MIC (minimum inhibitory concentration)
Source text: as §1, §3

[10] = system: Candida glabrata ATCC 2001; experiment: Fluconazole MIC by E-test; format: cell-based; details: Nakaseomyces glabratus, ATCC2001; E_test, range 0.016-256 μg/ml; read-out: MIC (minimum inhibitory concentration)
Source text: as §1, §3

[11] = Miconazole 1 μg/ml, broth macrodilution

Clc1ccc(COC(Cn2ccnc2)c2ccc(Cl)cc2Cl)c(Cl)c1 (stereo not drawn) [Miconazole, miconazole]
MIC ([1]; Lodderomyces parapsilosis, ATCC22019, C. parapsilosis ATCC 22019): 1000 µg/mL (≈ 2400 µM) | optical density, OD ([1]; Miconazole 1.000 μg/ml): 0.295 | optical density, OD [1, 11]: 1.515 | optical density, OD ([1]; Miconazole 2.50 μg/ml): 1.115 | optical density, OD ([1]; Miconazole 5.00 μg/ml): 0.975 | optical density, OD ([1]; Miconazole 50 μg/ml): 0.894 | optical density, OD ([1]; Miconazole 250 μg/ml): 0.701 | optical density, OD ([1]; Miconazole 300 μg/ml): 0.415 | optical density, OD ([1]; Miconazole 500 μg/ml): 0.314 | optical density, OD ([2]; Miconazole 1.000 μg/ml): 1.931 | optical density, OD [2, 11]: 1.950 | optical density, OD ([2]; Miconazole 2.50 μg/ml): 1.927 | optical density, OD ([2]; Miconazole 5.00 μg/ml): 1.908 | optical density, OD ([2]; Miconazole 50 μg/ml): 1.846 | optical density, OD ([2]; Miconazole 250 μg/ml): 1.942 | optical density, OD ([2]; Miconazole 300 μg/ml): 1.937 | optical density, OD ([2]; Miconazole 500 μg/ml): 1.903 | optical density, OD ([3]; Miconazole 1.000 μg/ml): 2.198 | optical density, OD [3, 11]: 2.260 | optical density, OD ([3]; Miconazole 2.50 μg/ml): 2.260 | optical density, OD ([3]; Miconazole 5.00 μg/ml): 2.246 | optical density, OD ([3]; Miconazole 50 μg/ml): 2.239 | optical density, OD ([3]; Miconazole 250 μg/ml): 2.212 | optical density, OD ([3]; Miconazole 300 μg/ml): 2.215 | optical density, OD ([3]; Miconazole 500 μg/ml): 2.213 | local adverse events ([4]; 50 patients per group): 6 cases | Positive/negative ([4]; 3 days, 1 vaginal capsule at night for three consecutive days, 50 patients per group): 3/47 | Positive/negative ([4]; Final (two weeks of post-treatment observation), 50 patients per group): 8/42 | microbiological eradication of Candida, patients ([4]; at the end of the three-day treatment): 94% | frequency of local adverse events ([4]; female, human, in vivo, 3 days): 12% | Adverse events: Adverse ([4]; number of 50 patients): 47 | Adverse events: Present ([4]; number of 50 patients): 3 | Eradication: Failure ([4]; number of 50 patients): 3 | Eradication: Relapse ([4]; number of 50 patients): 5 | Eradication: Success ([4]; number of 50 patients): 42 | Patient's opinion about efficacy: Acceptable ([4]; number of 50 patients): 5 | Patient's opinion about efficacy: Excellent ([4]; number of 50 patients): 38 | Patient's opinion about efficacy: Good ([4]; number of 50 patients): 4 | Patient's opinion about efficacy: None ([4]; number of 50 patients): 3 | Tolerability opinion: Acceptable ([4]; number of 50 patients): 3 | Tolerability opinion: Excellent ([4]; number of 50 patients): 44 | Tolerability opinion: Good ([4]; number of 50 patients): 3 | Tolerability opinion: None ([4]; number of 50 patients): 0 | optical density, OD ([5]; Miconazole 1.000 μg/ml): 1.464 | optical density, OD [5, 11]: 1.906 | optical density, OD ([5]; Miconazole 2.50 μg/ml): 1.910 | optical density, OD ([5]; Miconazole 5.00 μg/ml): 1.901 | optical density, OD ([5]; Miconazole 50 μg/ml): 1.905 | optical density, OD ([5]; Miconazole 250 μg/ml): 1.916 | optical density, OD ([5]; Miconazole 300 μg/ml): 1.889 | optical density, OD ([5]; Miconazole 500 μg/ml): 1.863 | optical density, OD ([6]; Miconazole 1.000 μg/ml): 1.972 | optical density, OD [6, 11]: 1.990 | optical density, OD ([6]; Miconazole 2.50 μg/ml): 1.900 | optical density, OD ([6]; Miconazole 5.00 μg/ml): 1.893 | optical density, OD ([6]; Miconazole 50 μg/ml): 1.994 | optical density, OD ([6]; Miconazole 250 μg/ml): 2.004 | optical density, OD ([6]; Miconazole 300 μg/ml): 1.999 | optical density, OD ([6]; Miconazole 500 μg/ml): 1.988

OC(Cn1cncn1)(Cn1cncn1)c1ccc(F)cc1F [fluconazole]
MIC [7]: 1 µg/mL (≈ 3.27 µM) | MIC [8]: > 256 µg/mL | MIC [9]: > 256 µg/mL | MIC [10]: > 256 µg/mL
